Experimental findings from patent US20090253669A1, “Substituted Sulfonamide Compounds” (GRUENENTHAL GmbH, priority 2008, published 2009) are described below.

As usually defined, the inhibition is the drop in the measured response relative to a control, in per cent.

In assay [1] the target is T1, human B1R receptor (hB1R) (Homo sapiens, UniProt P46663).
T1 construct: host or cells: CHO K1 cells
T1 sequence (P46663 1-353): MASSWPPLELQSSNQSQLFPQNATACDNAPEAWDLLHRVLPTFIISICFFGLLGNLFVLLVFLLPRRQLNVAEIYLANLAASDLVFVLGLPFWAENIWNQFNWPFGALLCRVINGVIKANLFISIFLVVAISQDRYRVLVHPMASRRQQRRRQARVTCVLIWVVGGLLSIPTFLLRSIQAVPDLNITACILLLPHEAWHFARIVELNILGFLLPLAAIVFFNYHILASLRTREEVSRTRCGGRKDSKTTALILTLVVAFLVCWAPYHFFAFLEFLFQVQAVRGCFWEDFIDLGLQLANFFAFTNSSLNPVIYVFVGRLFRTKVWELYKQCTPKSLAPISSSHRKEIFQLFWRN
The assay is described as follows: FLIPR Ca2+ assay on hB1R-transfected CHO K1 cells, antagonistic action. The format is cell-based. Conditions: CHO-K1, 10 μM test substance; agonist Lys-Des-Arg9-bradykinin 0.5 nM; % of maximum achievable inhibition; read-out: hB1R [10 μM] % inhibition.

In assay [2] the target is T2, B1R receptor of the rat (rB1R) (Rattus norvegicus, UniProt P97583).
T2 construct: host or cells: CHO K1 cells
T2 sequence (P97583 1-337): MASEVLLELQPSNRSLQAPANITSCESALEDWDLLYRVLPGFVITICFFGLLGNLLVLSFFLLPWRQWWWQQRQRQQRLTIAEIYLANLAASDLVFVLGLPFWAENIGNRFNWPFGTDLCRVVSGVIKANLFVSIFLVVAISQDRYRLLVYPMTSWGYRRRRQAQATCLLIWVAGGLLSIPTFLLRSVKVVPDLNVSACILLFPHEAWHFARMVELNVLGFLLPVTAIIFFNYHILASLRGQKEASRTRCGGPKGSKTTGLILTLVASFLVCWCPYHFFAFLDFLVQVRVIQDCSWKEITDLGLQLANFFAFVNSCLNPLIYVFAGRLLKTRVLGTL
The assay is described as follows: FLIPR Ca2+ assay on rB1R-transfected CHO K1 cells, antagonistic action. Conditions: CHO-K1, 10 μM test substance; agonist Des-Arg9-bradykinin 100 nM; % of maximum achievable inhibition; read-out: rB1R [10 μM] % inhibition. The assay is classed as cell-based.

`COc1cc(C)c(S(=O)(=O)N2CCCC2COCC(=O)NC2CCC(c3ccccc3)(N3CCOCC3)CC2)c(C)c1` (stereo not drawn) [Compound 160, 2-((1-(4-methoxy-2,6-dimethylphenylsulfonyl)pyrrolidin-2-yl)methoxy)-N-(4-morpholino-4-phenylcyclohexyl)acetamide]: the inhibition at 10 µM in assay [1] was determined as 93%; in assay [2], 98%.

In the case of `CN1CCN(C2(CCc3ccccc3)CCC(CN(C)C(=O)COCC3CCCCN3S(=O)(=O)c3c(Cl)cc(Cl)cc3Cl)CC2)CC1` (stereo not drawn) [Compound 161, N-methyl-N-((4-(4-methylpiperazin-1-yl)-4-phenethylcyclohexyl)methyl)-2-((1-(2,4,6-trichlorophenylsulfonyl)piperidin-2-yl)methoxy)acetamide], the figures for the inhibition at 10 µM in assay [1] and in assay [2] were 101% and 98%, respectively.

As to `CN1CCN(C2(Cc3ccccc3)CCC(CN(C)C(=O)COCC3CCCCN3S(=O)(=O)c3c(Cl)cc(Cl)cc3Cl)CC2)CC1` (stereo not drawn) [Compound 162, N-((4-benzyl-4-(4-methylpiperazin-1-yl)cyclohexyl)methyl)-N-methyl-2-((1-(2,4,6-trichlorophenylsulfonyl)piperidin-2-yl)methoxy)acetamide], the inhibition at 10 µM in assay [1] turned out to be 102%; in assay [2] it was 94%.

`O=C(COCC1CCCCN1S(=O)(=O)c1c(Cl)cc(Cl)cc1Cl)NC1CCC(Cc2ccccc2)(N2CCCC2)CC1` (stereo not drawn) [Compound 163, N-(4-benzyl-4-(pyrrolidin-1-yl)cyclohexyl)-2-((1-(2,4,6-trichlorophenylsulfonyl)piperidin-2-yl)methoxy)acetamide]: the figures for the inhibition at 10 µM in assay [1] and in assay [2] were 84% and 93%, respectively.

For the molecule `O=C(COCC1CCCN1S(=O)(=O)c1c(Cl)cc(Cl)cc1Cl)NC1CCC(c2ccccc2)(N2CCOCC2)CC1` (stereo not drawn) [Compound 164, N-(4-morpholino-4-phenylcyclohexyl)-2-((1-(2,4,6-trichlorophenylsulfonyl)pyrrolidin-2-yl)methoxy)acetamide], the values for the inhibition at 10 µM in assay [1] and in assay [2] were 74% and 90%, respectively.

Regarding `COc1cc(C)c(S(=O)(=O)N(C)CCOCC(=O)N(C)CC2CCC(CCc3ccccc3)(N3CCN(C)CC3)CC2)c(C)c1` (stereo not drawn) [Compound 165, 2-(2-(4-methoxy-N,2,6-trimethylphenylsulfonamido)ethoxy)-N-methyl-N-((4-(4-methylpiperazin-1-yl)-4-phenethylcyclohexyl)methyl)acetamide], the inhibition at 10 µM in assay [1] amounted to 103%; in assay [2], 90%.

In the case of `COc1cc(C)c(S(=O)(=O)N2CCC(OCC(=O)NC3CCC(Cc4ccccc4)(N4CCCC4)CC3)C2)c(C)c1` (stereo not drawn) [Compound 166, N-(4-benzyl-4-(pyrrolidin-1-yl)cyclohexyl)-2-(1-(4-methoxy-2,6-dimethylphenylsulfonyl)pyrrolidin-3-yloxy)acetamide], the inhibition at 10 µM turned out to be 92% in assay [1] and 90% in assay [2].

With `COc1cc(C)c(S(=O)(=O)N(C)CCOCC(=O)NC2CCC(c3ccccc3)(N3CCOCC3)CC2)c(C)c1` (stereo not drawn) [Compound 167, 2-(2-(4-methoxy-N,2,6-trimethylphenylsulfonamido)ethoxy)-N-(4-morpholino-4-phenylcyclohexyl)acetamide], the inhibition at 10 µM in assay [1] worked out at 100%; in assay [2], 88%.

Regarding `CN1CCN(C2(Cc3ccccc3)CCC(CN(C)C(=O)COCC3CCCN3S(=O)(=O)c3c(Cl)cc(Cl)cc3Cl)CC2)CC1` (stereo not drawn) [Compound 168, N-((4-benzyl-4-(4-methylpiperazin-1-yl)cyclohexyl)methyl)-N-methyl-2-((1-(2,4,6-trichlorophenylsulfonyl)pyrrolidin-2-yl)methoxy)acetamide], the inhibition at 10 µM in assay [1] and in assay [2] was 88% in each case.

Turning to `COc1cc(C)c(S(=O)(=O)N2CCCC2COCC(=O)NCC2CCC(Cc3ccccc3)(N3CCOCC3)CC2)c(C)c1` (stereo not drawn) [Compound 169, N-((4-benzyl-4-morpholinocyclohexyl)methyl)-2-((1-(4-methoxy-2,6-dimethylphenylsulfonyl)pyrrolidin-2-yl)methoxy)acetamide], the inhibition at 10 µM amounted to 41% in assay [1] and 86% in assay [2].

Consider `COc1cc(C)c(S(=O)(=O)N(C)CCOCC(=O)NC2CCC(Cc3ccccc3)(N3CCCC3)CC2)c(C)c1` (stereo not drawn) [Compound 170, N-(4-benzyl-4-(pyrrolidin-1-yl)cyclohexyl)-2-(2-(4-methoxy-N,2,6-trimethylphenylsulfonamido)ethoxy)acetamide], for which the inhibition at 10 µM in assay [1] worked out at 104%; in assay [2], 84%.

Consider `COc1cc(C)c(S(=O)(=O)N(C)CCOCC(=O)NC2CCC(Cc3ccccc3)(N3CCOCC3)CC2)c(C)c1` (stereo not drawn) [Compound 171, N-(4-benzyl-4-morpholinocyclohexyl)-2-(2-(4-methoxy-N,2,6-trimethylphenylsulfonamido)ethoxy)acetamide], for which the inhibition at 10 µM in assay [1] came out at 75%; in assay [2], 82%.

In the case of `CN1CCN(C2(CCc3ccccc3)CCC(CN(C)C(=O)COCC3CCCN3S(=O)(=O)c3c(Cl)cc(Cl)cc3Cl)CC2)CC1` (stereo not drawn) [Compound 172, N-methyl-N-((4-(4-methylpiperazin-1-yl)-4-phenethylcyclohexyl)methyl)-2-((1-(2,4,6-trichlorophenylsulfonyl)pyrrolidin-2-yl)methoxy)acetamide], the inhibition at 10 µM was 98% in assay [1] and 79% in assay [2].

As for `COc1cc(C)c(S(=O)(=O)N2CCC(OCC(=O)NCC3CCC(c4ccccc4)(N4CCOCC4)CC3)C2)c(C)c1` (stereo not drawn) [Compound 173, 2-(1-(4-methoxy-2,6-dimethylphenylsulfonyl)pyrrolidin-3-yloxy)-N-((4-morpholino-4-phenylcyclohexyl)methyl)acetamide], the results for the inhibition at 10 µM in assay [1] and in assay [2] were 64% and 78%, respectively.

In the case of `COc1cc(C)c(S(=O)(=O)N2CCC(OCC(=O)N(C)CC3CCC(Cc4ccccc4)(N4CCN(C)CC4)CC3)C2)c(C)c1` (stereo not drawn) [Compound 174, N-((4-benzyl-4-(4-methylpiperazin-1-yl)cyclohexyl)methyl)-2-(1-(4-methoxy-2,6-dimethylphenylsulfonyl)pyrrolidin-3-yloxy)-N-methylacetamide], the figures for the inhibition at 10 µM in assay [1] and in assay [2] were 99% and 78%, respectively.

Consider `CN1CCN(C2(Cc3ccccc3)CCC(CN(C)C(=O)COC3CCCN(S(=O)(=O)c4c(Cl)cc(Cl)cc4Cl)C3)CC2)CC1` (stereo not drawn) [Compound 175, N-((4-benzyl-4-(4-methylpiperazin-1-yl)cyclohexyl)methyl)-N-methyl-2-(1-(2,4,6-trichlorophenylsulfonyl)piperidin-3-yloxy)acetamide], for which the figures for the inhibition at 10 µM in assay [1] and in assay [2] were 97% and 77%, respectively.

Regarding `COc1cc(C)c(S(=O)(=O)N2CCCC(OCC(=O)NC3CCC(c4ccccc4)(N4CCCC4)CC3)C2)c(C)c1` (stereo not drawn) [Compound 176, 2-(1-(4-methoxy-2,6-dimethylphenylsulfonyl)piperidin-3-yloxy)-N-(4-phenyl-4-(pyrrolidin-1-yl)cyclohexyl)acetamide], the inhibition at 10 µM in assay [1] is 89%; in assay [2], 77%.

In the case of `COc1cc(C)c(S(=O)(=O)N2CCC(OCC(=O)N(C)CC3CCC(CCc4ccccc4)(N4CCN(C)CC4)CC3)C2)c(C)c1` (stereo not drawn) [Compound 177, 2-(1-(4-methoxy-2,6-dimethylphenylsulfonyl)pyrrolidin-3-yloxy)-N-methyl-N-((4-(4-methylpiperazin-1-yl)-4-phenethylcyclohexyl)methyl)acetamide], the inhibition at 10 µM came out at 103% in assay [1] and 76% in assay [2].

With `O=C(COC1CCN(S(=O)(=O)c2c(Cl)cc(Cl)cc2Cl)C1)NC1CCC(c2ccccc2)(N2CCCC2)CC1` (stereo not drawn) [Compound 178, N-(4-phenyl-4-(pyrrolidin-1-yl)cyclohexyl)-2-(1-(2,4,6-trichlorophenylsulfonyl)pyrrolidin-3-yloxy)acetamide], the inhibition at 10 µM amounted to 53% in assay [1] and 76% in assay [2].

Consider `CN(CCOCC(=O)NC1CCC(c2ccccc2)(N2CCCC2)CC1)S(=O)(=O)c1ccc(Cl)cc1Cl` (stereo not drawn) [Compound 179, 2-(2-(2,4-dichloro-N-methylphenylsulfonamido)ethoxy)-N-(4-phenyl-4-(pyrrolidin-1-yl)cyclohexyl)acetamide], for which the inhibition at 10 µM in assay [1] is 41%; in assay [2] it was 75%.

Consider `COc1cc(C)c(S(=O)(=O)N2CCCC(COCC(=O)NC3CCC(Cc4ccccc4)(N4CCCC4)CC3)C2)c(C)c1` (stereo not drawn) [Compound 180, N-(4-benzyl-4-(pyrrolidin-1-yl)cyclohexyl)-2-((1-(4-methoxy-2,6-dimethylphenylsulfonyl)piperidin-3-yl)methoxy)acetamide], for which the inhibition at 10 µM in assay [1] was 71%; in assay [2] it was 73%.
